# Test results reported in patent publication US8956555B2, “Silylethynyl pentacene compounds and compositions and methods of making and using the same” (3M Innovative Properties Company, priority 2008, dated 2015).
# Test: Solubility in organic solvent (toluene)
# Type: physicochemical
smiles,measurement,value
"C=CC[Si](C#Cc1c2cc3ccccc3cc2c(C#C[Si](CC=C)(C(C)C)C(C)C)c2cc3ccccc3cc12)(C(C)C)C(C)C [Compound I, 6,13-bis(allyldiisopropylsilylethynyl)pentacene]",solubility in toluene,greater than 21 wt %
